Bridge positions count the residues as written; N and C are the ends. Square brackets hold non-standard residues; d marks the D form. Peptide text beside a SMILES is read from it.
Tests used:
human SSTR2 (Gi3) = target: T1, human SSTR2 (Gi3) (Homo sapiens, UniProt P30874); assay: G protein activation (BRET dissociation) assay, Gi3 at hSSTR2; format: cell-based;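 on Emax ± S.E.M.: percent of the maximal response to the reference somatostatin agonist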
T1 construct: host or cells: HEK293T cells
Method: (§1) HEK293T cells were seeded onto 6-well plates at a density of 750,000 cells/well. […] 16 to 24 hours post-transfection, HEK293T cells were seeded onto white 96 well plate (PerkinElmer) coated with poly-L-lysine (PLL) at a density of 40,000 cells/well and were allowed to grow overnight. On the day of assay, cells were washed once with phosphate-based saline (PBS) and 80 µL of assay buffer which composed of PBS with 0.5 mM MgCl2 and 0.1% glucose, pH 7.4, were added onto each well. 10 µL of Nluc luciferase substrate furimazine (Promega) were added onto each well and incubated for 3 minutes.
(§2) The net BRET ratio was determined by subtracting the BRET ratio of drugs with the BRET ratio of vehicle control. Net BRET ratio over time was then plotted using GraphPad Prism (v.9.4.1), and the area-under-curve of net BRET ratio over time course for each ligand concentration tested were then determined and plotted against log(concentration) of drugs tested. […] Concentration response curves were fitted with a 4-parameter logistic Eq. (1) using GraphPad Prism (v.9.4.1):1 Y=Emin+(Emax−Emin)/1+10^logEC50−X×Hillslope

perfused rat pancreas [1] = assay: Rat pancreas perfusion, insulin output; set-up: species or system rat (Wistar); settings: for effect on insulin secretion: 0.1 nM, 1 nM and 10 nM, […] glucose, n = 5 rats; for Insulin output: Mean
Method: Non-fasted rats were anesthetized by a subcutaneous injection of a balanced mix of hypnorm and midazolam (0.3 mL/100 g body weight). Rats were placed on a heated operating table (37 °C) and the abdomen were opened. Blood vessels were tied off before removing the large and small intestines, the stomach, and the spleen. Then, the kidneys were ligated. […] The perfusion buffer was a modified Krebs-Ringer bicarbonate buffer with 5% (w/v) dextran T-70 (Pharmacosmos, Holbaek, Denmark), 0.1% (w/v) BSA (fraction V), 3.5 mM glucose and 3 mM vamin (Fresenius Kabi, Copenhagen, Denmark), pH adjusted to 7.4. […] Once perfusion of the pancreas was established, a catheter was inserted in the vena portae to collect the venous effluent and the rat was sacrificed by perforation of the diaphragm. After a 30-minute equilibration period, samples were collected every minute for the duration of the protocol. […] 10 mM L-Arginine was used as a positive control. Collected samples were immediately transferred on ice and stored at −20 °C until hormone analysis. Glucagon, insulin, and somatostatin concentrations in venous effluents were quantified by use of validated in-house radioimmunoassays (RIA) as previously described[36] (see below). Statistical analysis were performed where appropriate using one-way analysis of variance (ANOVA) with Dunnett’s post-test. Statistical significance was taken as p < 0.05.
Glucagon concentration in perfusion samples were measured by a validated in-house RIAs using the 4305 antibody, which reacts with the C-terminal epitope of glucagon[36] and no other cleavage products of pro-glucagon. Insulin concentrations were measured with the 2006 antibody, which measures all isoforms of rat insulin. […] Assay sensitivity was <1 pmol/L ( < 5 pmol/L for insulin detection), allowing reliable measurements of increments of at least 25 fmol/min.
Data analysis were performed in GraphPad Prism (v.9.4.1). Statistical analysis were performed using two-way repeated measure analysis of variance (ANOVA) with Šidák test for isolated islets glucagon secretion and one-way repeated measure ANOVA with Dunnett's test for rat pancreas perfusion experiments. Statistical significance was taken as p < 0.05.

perfused rat pancreas [2] = assay: Rat pancreas perfusion, somatostatin output; set-up: species or system rat (Wistar); settings: 0.1 nM, 1 nM and 10 nM, […] glucose, n = 10 rats
Method: Non-fasted rats were anesthetized by a subcutaneous injection of a balanced mix of hypnorm and midazolam (0.3 mL/100 g body weight). Rats were placed on a heated operating table (37 °C) and the abdomen were opened. Blood vessels were tied off before removing the large and small intestines, the stomach, and the spleen. Then, the kidneys were ligated. […] The perfusion buffer was a modified Krebs-Ringer bicarbonate buffer with 5% (w/v) dextran T-70 (Pharmacosmos, Holbaek, Denmark), 0.1% (w/v) BSA (fraction V), 3.5 mM glucose and 3 mM vamin (Fresenius Kabi, Copenhagen, Denmark), pH adjusted to 7.4. […] Once perfusion of the pancreas was established, a catheter was inserted in the vena portae to collect the venous effluent and the rat was sacrificed by perforation of the diaphragm. After a 30-minute equilibration period, samples were collected every minute for the duration of the protocol. […] Glucagon, insulin, and somatostatin concentrations in venous effluents were quantified by use of validated in-house radioimmunoassays (RIA) as previously described[36] […]
Glucagon concentration in perfusion samples were measured by a validated in-house RIAs using the 4305 antibody, which reacts with the C-terminal epitope of glucagon[36] and no other cleavage products of pro-glucagon. Insulin concentrations were measured with the 2006 antibody, which measures all isoforms of rat insulin. […]

[3] = tested on: Dr-sstr2a with the ECL2 region of the hSSTR2; assay: Activation of hybrid receptor (ECL2 of hSSTR2 inserted into Dr-sstr2a); format: cell-based; settings: preliminary results, peer review file
Text: To further address this, we have begun to perform mutagenesis studies on the Dr-sstr2a.

human SSTR2 [4] = target: T2, human SSTR2 (Homo sapiens, UniProt P30874); assay: PRESTO-Tango β-arrestin recruitment assay, hSSTR2
T2 sequence (P30874 whole entry): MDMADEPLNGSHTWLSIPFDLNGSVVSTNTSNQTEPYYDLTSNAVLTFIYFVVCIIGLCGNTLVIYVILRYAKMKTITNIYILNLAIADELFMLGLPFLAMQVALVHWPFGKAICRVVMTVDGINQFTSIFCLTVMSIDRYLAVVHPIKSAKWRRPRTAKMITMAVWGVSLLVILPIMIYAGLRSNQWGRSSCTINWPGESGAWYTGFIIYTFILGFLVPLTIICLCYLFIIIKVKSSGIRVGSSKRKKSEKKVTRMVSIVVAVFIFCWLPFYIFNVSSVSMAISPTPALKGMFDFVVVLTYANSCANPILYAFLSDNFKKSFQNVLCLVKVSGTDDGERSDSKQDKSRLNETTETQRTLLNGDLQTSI
Method: HTLA cells were given by Prof. Bryan Roth (University of North Carolina, Chapel Hill, US) and were maintained in Dulbecco’s modified Eagle’s medium (DMEM) supplemented with 10% Fetal Bovine Serum (FBS) (Biowest) and 100 U/mL penicillin and 100 µg/mL streptomycin at 37 °C in a humidified incubator supplemented with 5% CO2. Constant selective pressure for tTA-dependent luciferase reporter and a β-arrestin 2 tobacco etch virus protease fusion gene were maintained with the addition of 100 µg/mL hygromycin B and 2 µg/ml puromycin (Tango growth medium).
Briefly, HTLA cells (1 million cells/well) were seeded in 6-well plates in Tango growth medium, and incubated overnight. On day 2, medium was changed to Tango growth medium without hygromycin B and puromycin. Cells were then transfected using Polyfect (Qiagen) according to manufacturer’s protocol. On day 3, 15,000 cells in 40 µL DMEM supplemented with 1% dialyzed FBS (Tango assay medium) per well were seeded in poly-D-lysine-coated white clear-bottom 384 well plates (Corning) and incubated overnight. On day 4, the Tango assay medium was changed and 10 µL of each of the peptide was added at 5x final concentration. The peptides were resuspended in HBSS with 20 mM HEPES, 1 mM of CaCl2, 1 mM of MgCl2, pH adjusted to 7.4 with 1 M NaOH (Tango assay buffer), which was supplemented with 0.1% BSA (Tango ligand buffer). After overnight incubation, on day 5, the medium and the compounds were removed from the cells and 20 µL of 1:20 dilution of BrightGlo (Promega) in Tango assay buffer supplemented with 0.01% pluronic F68 was added to the cells. Plates were incubated for 20 minutes in the dark at room temperature. Luminescence was measured on a Molecular Devices SpectraMax iD5 (Molecular Devices) with each well integrated for 1 second.

human SSTR2 (GoA) = human SSTR2 (GoA) (Homo sapiens, UniProt P30874); assay: G protein activation (BRET dissociation) assay, GoA at hSSTR2;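 on Emax: percent of the maximal response to the reference somatostatin agonist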
Chain of human SSTR2 (GoA) (P30874 whole entry): as above
Method: as §1, §2

human SSTR2 [5] = target: T2, human SSTR2; assay: Quantification of ligand bias (operational model), G proteins at hSSTR2; format: cell-based; set-up: Bryan Roth (Addgene) Addgene kit # 1000000068; host or cells: HTLA cells; settings: for ∆log(tau/Ka): LogR(ligand) - LogR(SST-14); for LogR ± S.E.M.: log(τ/KA); for RE: relative efficacy; for ∆LogR ± S.E.M.: relative to SS-14; for G protein bias in words: ∆Log(τ/KA), SS-14 as reference
Text: Ligand bias were quantified using the method described in[35]. […] The operational model (2)[35] was used to determine the transduction ratios (τ/KA).2 E=Emin+(Emax−Emin)/1+(1+A/10^logKA)/10^logRA^n where E is the effect of the ligand, [A] is the concentration of test ligands, Emax is the maximal response of the system, Emin is the minimum response of the system, logKA is the logarithm of the equilibrium dissociation constant, n is the slope of the transducer function, log R is the logarithm of the transduction ratio (τ/KA).
Each experiment was analyzed using the operational model which all individual experiments were fitted with a global shared slope. The LogR (equivalent to log [τ] /KA) values were estimated by GraphPad Prism (v.9.4.1) and were used to calculate the relative efficacy (RE) using Eqs.

T1 sequence (P30874 whole entry): as above

Compound: CC(C)C[C@H](N)C(=O)N[C@@H](Cc1ccccc1)C(=O)N[C@H]1CSSC[C@@H](C(=O)N[C@@H](Cc2c[nH]c3ccccc23)C(=O)O)NC(=O)[C@H](CO)NC(=O)[C@H](CCCCN)NC(=O)[C@@H](Cc2c[nH]c3ccccc23)NC(=O)[C@H](Cc2ccccc2)NC1=O [pG1] (H-LFCF[dW]KSCW-OH; disulfide 3-8)
- Emax (human SSTR2 (Gi3)): 75.2 ± 7.38%
- Hill Slope (human SSTR2 (Gi3); Table S2, Gαi3): 0.70 ± 0.18
- Span ± S.E.M. (human SSTR2 (Gi3); Table S2, Gαi3): 75.57 ± 8.97
- effect on insulin secretion (perfused rat pancreas [1]): did not affect insulin and somatostatin output at low glucose (3.5 mM)
- effect on insulin secretion (perfused rat pancreas [1]; listed as Consomatin pG1): no effect on somatostatin or insulin secretion in 3.5 mM glucose
- Insulin output (perfused rat pancreas [1]; 0.1nM, replicate 1): 35.5
- Insulin output (perfused rat pancreas [1]; 0.1nM, replicate 2): 10
- Insulin output (perfused rat pancreas [1]; 0.1nM, replicate 3): 25.5
- Insulin output (perfused rat pancreas [1]; 0.1nM, replicate 4): 51
- Insulin output (perfused rat pancreas [1]; 0.1nM, replicate 5): 14
- Insulin output (perfused rat pancreas [1]; 1nM, replicate 1): 15.5556
- Insulin output (perfused rat pancreas [1]; 1nM, replicate 2): 29
- Insulin output (perfused rat pancreas [1]; 1nM, replicate 3): 40
- Insulin output (perfused rat pancreas [1]; 1nM, replicate 4): 74.5
- Insulin output (perfused rat pancreas [1]; 1nM, replicate 5): 0
- Insulin output (perfused rat pancreas [1]; 10nM, replicate 1): 25
- Insulin output (perfused rat pancreas [1]; 10nM, replicate 2): 0
- Insulin output (perfused rat pancreas [1]; 10nM, replicate 3): 15
- Insulin output (perfused rat pancreas [1]; 10nM, replicate 4): 35
- Insulin output (perfused rat pancreas [1]; 10nM, replicate 5): 11.5
- effect on somatostatin secretion (perfused rat pancreas [2]): did not affect insulin and somatostatin output at low glucose (3.5 mM)
- effect on somatostatin secretion (perfused rat pancreas [2]; listed as Consomatin pG1): no effect on somatostatin or insulin secretion in 3.5 mM glucose
- activation of hybrid receptor in words [3]: activation of this hybrid receptor
- EC50 (human SSTR2 [4]): 3.55 nM
- activation of hSSTR2 in words (human SSTR2 [4]; PRESTO-Tango, HTLA cells): potent and selective SSTR2 full agonist
- Hill Slope (human SSTR2 [4]; Table S1): 0.50 ± 0.06
- Span ± S.E.M. (human SSTR2 [4]; Table S1): 106.03 ± 6.98
- Emax (human SSTR2 [4]; read-out: Emax ± S.E.M., Table S1, % of maximal response relative to SS-14): 105 ± 3.01%
- EC50 (human SSTR2 (GoA)): 5.13 nM
- Hill Slope (human SSTR2 (GoA); Table S2, GαoA): 1.04 ± 0.25
- Span ± S.E.M. (human SSTR2 (GoA); Table S2, GαoA): 97.45 ± 6.80
- GoA activation/dissociation in words (human SSTR2 (GoA); hSSTR2, HEK293T cells): most potent at dissociating GoA protein among all Gi/o proteins tested
- Emax (human SSTR2 (GoA); read-out: Emax ± S.E.M.): 97.9 ± 4.11%
- ∆log(tau/Ka) (human SSTR2 [5]; Gi1 (Gαi1)): -1.977
- LogR, Mean (human SSTR2 [5]; Gi1, N: SS-14 4, Octreotide 2, pG1 4): 7.421
- LogR (human SSTR2 [5]; Gi1, replicate 1 (row r6)): 7.197
- LogR (human SSTR2 [5]; Gi1, replicate 2 (row r7)): 7.651
- LogR (human SSTR2 [5]; Gi1, replicate 3 (row r8)): 7.8528
- LogR (human SSTR2 [5]; Gi1, replicate 4 (row r9)): 6.983
- ∆log(tau/Ka) (human SSTR2 [5]; Gi2 (Gαi2)): -1.482
- LogR, Mean (human SSTR2 [5]; Gi2, N: SS-14 5, Octreotide 3, pG1 5): 7.871
- LogR (human SSTR2 [5]; Gi2, replicate 1 (row r6)): 7.692
- LogR (human SSTR2 [5]; Gi2, replicate 2 (row r7)): 7.679
- LogR (human SSTR2 [5]; Gi2, replicate 3 (row r8)): 7.686
- LogR (human SSTR2 [5]; Gi2, replicate 4 (row r9)): 8.256
- LogR (human SSTR2 [5]; Gi2, replicate 5 (row r10)): 8.0434
- ∆log(tau/Ka) (human SSTR2 [5]; Gi3 (Gαi3)): -1.406
- LogR, Mean (human SSTR2 [5]; Gi3, N: SS-14 3, Octreotide 2, pG1 3): 8.305
- LogR (human SSTR2 [5]; Gi3, replicate 1 (row r6)): 7.832
- LogR (human SSTR2 [5]; Gi3, replicate 2 (row r7)): 8.615
- LogR (human SSTR2 [5]; Gi3, replicate 3 (row r8)): 8.468
- ∆log(tau/Ka) (human SSTR2 [5]; GoA (GαoA)): -1.083
- LogR, Mean (human SSTR2 [5]; GoA, N: SS-14 4, Octreotide 2, pG1 2): 8.753
- LogR (human SSTR2 [5]; GoA, replicate 1 (row r6)): 8.653
- LogR (human SSTR2 [5]; GoA, replicate 4 (row r9)): 8.853
- ∆log(tau/Ka) (human SSTR2 [5]; GoB (GαoB)): -1.118
- LogR, Mean (human SSTR2 [5]; GoB, N: SS-14 2, Octreotide 2, pG1 3): 8.505
- LogR (human SSTR2 [5]; GoB, replicate 1 (row r6)): 8.36
- LogR (human SSTR2 [5]; GoB, replicate 2 (row r7)): 8.764
- LogR (human SSTR2 [5]; GoB, replicate 3 (row r8)): 8.39
- LogR ± S.E.M. (human SSTR2 [5]; Gαi1): 7.42 ± 0.20
- RE (human SSTR2 [5]; Gαi1, 10^∆log(τ/KA)): 0.01
- ∆LogR ± S.E.M. (human SSTR2 [5]; Gαi1): -1.98 ± 0.27
- LogR ± S.E.M. (human SSTR2 [5]; Gαi2): 7.87 ± 0.12
- RE (human SSTR2 [5]; Gαi2): 0.033
- ∆LogR ± S.E.M. (human SSTR2 [5]; Gαi2): -1.48 ± 0.31
- LogR ± S.E.M. (human SSTR2 [5]; Gαi3): 8.30 ± 0.24
- RE (human SSTR2 [5]; Gαi3): 0.039
- ∆LogR ± S.E.M. (human SSTR2 [5]; Gαi3): -1.41 ± 0.26
- LogR ± S.E.M. (human SSTR2 [5]; GαoA): 8.75 ± 0.10
- RE (human SSTR2 [5]; GαoA): 0.082
- ∆LogR ± S.E.M. (human SSTR2 [5]; GαoA): -1.08 ± 0.13
- LogR ± S.E.M. (human SSTR2 [5]; GαoB): 8.50 ± 0.13
- RE (human SSTR2 [5]; GαoB): 0.076
- ∆LogR ± S.E.M. (human SSTR2 [5]; GαoB): -1.12 ± 0.14
- G protein bias in words (human SSTR2 [5]): does not bias towards Gi1 protein but preferentially couples to GoA and GoB protein
- G protein bias in words (human SSTR2 [5]; listed as Consomatin pG1): displays G protein bias towards Go subunits
